# Experimental data as given in patent publication US20160051665A1, “INDUCTION OF IMMUNE RESPONSE” (priority 2010, published 2016).
# Entries after “also recorded” stand apart in the source; their conditions may differ.
# Columns and labels:
# [1] = tested on: woodchuck hepatitis virus (WHV); experiment: serum WHV DNA by dot blot hybridization in chronic WHV carrier woodchucks; type: in vivo; details: for WHV DNA, Av(range): serum
# Method: (§1) All experimental procedures involving woodchucks were performed under protocols approved by the Cornell University Institutional Animal Care and Use Committee. Woodchucks were born to WHV-negative females in environmentally controlled laboratory animal facilities and inoculated at 3 days of age with 5 million infectious doses of a standardized WHV inoculum (23). Woodchucks were selected as chronic WHV carriers based on persistent detection of WHV surface antigen (WHsAg) and WHV DNA in serum prior to treatments. All animals were free of HCC at the beginning of the study as determined by hepatic ultrasound examination and normal serum activity of γ-glutamyl-transferase (GGT).
# (§2) Twenty adult chronically infected woodchucks were stratified by age, sex, body weight, serum viral load, and serum GGT activity into four treatment groups of five animals each. Drug was administered orally at 100 mg/kg (in sterile water), chosen after an initial dose finding trial. […] The subunit vaccine consisted of 22-nm WHsAg particles, purified by zonal ultracentrifugation from serum of WHV7P1-infected WHV carriers (24), inactivated with formalin, and adsorbed onto alum. Prior to alum adsorption, vaccine was tested in naïve, WHV-susceptible animals and no residual virus was detected. Purified WHsAg was not pretreated with enzymes that remove preS sequences.
# Blood samples were obtained for WHV DNA analysis and serological testing while animals were under general anesthesia (ketamine 50 mg/kg and xylazine 5 mg/kg intramuscularly). Samples were taken prior to drug administration on the first day of treatment and at the indicated time points.
# Serum WHV DNA was measured quantitatively by dot blot hybridization (assay sensitivity, ≧1.0×10^7 WHV genome equivalents per ml [WHVge/ml]) (25). Serum WHsAg, antibodies to WHV core antigen (anti-WHc), and WHV surface antigen (anti-WHs) were determined with WHV-specific enzyme immunoassays (26). Serum biochemical measurements included serum GGT, alkaline phosphatase (ALP), and marker of hepatocellular injury alanine aminotransferase (ALT), aspartate aminotransferase (AST), and sorbitol dehydrogenase (SDH) (25).
# (§3) Woodchucks chronically infected with WHV experienced significant immunological responses to envelope proteins following immunization with WHsAg-containing vaccines, especially in the context of low viral and antigen loads following treatment with an effective antiviral agent, 1-(2-fluoro-5-methyl-beta-L-arabinofuranosyl)-uracil (L-FMAU) (29, 35). Since BuCas treatment might be expected to reduce the amount of MHBs in the circulation and/or alter its immunological profile, the response to BuCas administration along with WHsAg vaccine was investigated. […] Animals were scored as positive if cells proliferated above the cut-off value of 2: 3.1. […]
# [2] = tested on: WHV surface antigen (WHsAg); experiment: serum WHsAg enzyme immunoassay in chronic WHV carrier woodchucks; type: in vivo, woodchuck; details: for WHsAg, Av(range): serum
# Method: as §1
# as §2, with “sequences. […]” for “sequences.”
# (§4) Serum WHV DNA was measured quantitatively by dot blot hybridization (assay sensitivity, ≧1.0×10^7 WHV genome equivalents per ml [WHVge/ml]) (25). Serum WHsAg, antibodies to WHV core antigen (anti-WHc), and WHV surface antigen (anti-WHs) were determined with WHV-specific enzyme immunoassays (26). […]
# as §3, with “35).” for “35). Since BuCas treatment might be expected to reduce the amount of MHBs in the circulation and/or alter its immunological profile, the response to BuCas administration along with WHsAg vaccine was investigated.”
# [3] = serum ALT, marker of hepatocellular injury, in woodchucks; type: in vivo, woodchuck
# Method: as §1
# Twenty adult chronically infected woodchucks were stratified by age, sex, body weight, serum viral load, and serum GGT activity into four treatment groups of five animals each. Drug was administered orally at 100 mg/kg (in sterile water), chosen after an initial dose finding trial. […] Prior to alum adsorption, vaccine was tested in naïve, WHV-susceptible animals and no residual virus was detected. […]
# as §4
# [4] = serum drug level after single oral dose in woodchucks; type: in vivo; details: woodchuck, single oral dose of 100 mg/kg
# Method: as §2
# [5] = observation of woodchucks for drug-related toxicity; type: in vivo, woodchuck; details: 100 mg/kg orally, weighed bi-weekly, observed daily
# [6] = tested on: woodchuck PBMCs; experiment: PBMC proliferation assay (stimulation index) with PBMCs of treated woodchucks; type: in vivo
# Method: T cell responses against WHY were determined using in vitro stimulators at concentrations optimal for cultures of woodchuck PBMCs (29, 30). Stimulators consisted of native 22-nm WHsAg (2 μg/ml), recombinant WHcAg (2 μg/ml), or synthetic peptides (10 μg/ml) corresponding to either native viral sequences or predicted N-de-glycosylated sequences (Table 1, below).
# The in vitro proliferation assay using woodchuck PBMCs labeled dividing cells with [2-^3H]adenine (Amersham Pharmacia Biotech, Inc., Arlington Heights, Ill.). Woodchuck PBMCs were isolated from whole blood and stimulated as described (30, 31). Counts per minute of triplicate PBMC cultures were averaged and expressed as a stimulation index (SI) by dividing the average sample counts per minute in the presence of the stimulator by that observed in the absence of stimulator (six replicates). A SI value of ≧3.1 was considered to represent a positive, specific T-cell response.
# as §3, with “35).” for “35). Since BuCas treatment might be expected to reduce the amount of MHBs in the circulation and/or alter its immunological profile, the response to BuCas administration along with WHsAg vaccine was investigated.”
# [7] = chronic WHV carrier woodchucks, all times tested
compound,measurement,setting,value
"CCCC(=O)O[C@H]1CN2CC[C@H](O)[C@@H]2[C@@H](O)[C@H]1O [BuCas, 6-O-butanoyl castanospermine]","viremia, in words",[1]; [7],not altered significantly
same,antiviral response in woodchucks,[1]; drug treated chronic WHV carrier woodchucks,no detectable antiviral response
same,"WHV DNA, Av(range)","[1]; week 0 (baseline), chronic WHV carrier woodchucks",2.7(.4-7.0) genome equivalents (×10^10)
same,"WHV DNA, Av(range)","[1]; week 10 (4 weeks after first vaccination), UD = <E07 GE, detection limit of dot blot hybridization",1.9(.9-4.8) genome equivalents (×10^10)
same,"antigenemia, in words",[2]; [7],not altered significantly
same,"WHsAg, Av(range)",[2]; week 0 (baseline),.38(.28-.43) optical density units
same,"WHsAg, Av(range)",[2]; week 10,.42(33-.52) optical density units
same,"ALT, Av(range)",[3]; week 0 (baseline),7.4 (4-9) Units/L
same,"ALT, Av(range)",[3]; week 10,15.6 (10-22) Units/L
same,"Cmax, range",[4],5000 to 12100 ng/mL
same,average observed Cmax,[4],7700 ng/mL
same,drug-related toxicity,[5],no evidence of drug-related toxicity was seen
same,PBMC response to paired N-peptides versus D-peptides,"[6]; glycosylation sequons at amino acids 4 and 146, from week 8 on, FIG. 4",responded more strongly to D-peptides versus N-peptides
same,PBMC proliferation in response to WHV HBs antigens,"[6]; positive if SI ≧3.1, FIG. 3",resulted in proliferation in response to WHV HBs antigens; also recorded: stimulated cellular immunity to viral antigen
